{"source": "patent US11834431B2", "about": "“Crystals of cyclic amine derivative and pharmaceutical use thereof” (Toray Industries, Inc., priority 2016, dated 2023)", "key": {"[1]": {"tested_on": "spinal nerve ligation model rats (neuropathic pain model rats)", "experiment": "Analgesic effect on allodynia in spinal nerve ligation model rats (von Frey, 50% response threshold)", "assay_type": "in vivo, rat", "conditions": "measured 3 hours after administration, 8 days after ligation, compared to negative control group", "description": "Analgesic effects of the crystal of compound (I) or the pharmacologically acceptable salt thereof upon neuropathic pain were evaluated using spinal nerve ligation model rats (Kim and Chung, Pain, 1992, vol. 50, p. 355). Form A crystal of compound (I) was used as a crystal of compound (I) or the pharmacologically acceptable salt thereof for evaluation.\nThe above model rats were prepared as follows. In experiments, 6-to 7-week-old SD male rats were used for 5 to 7 cases per group, and the lumbar skin and muscle of each rat were dissected to expose the L5 and L6 […] under inhalation anesthesia with isoflurane. After ligating the L5 and L6 spinal nerves with silk suture, the wound of each rat was sutured. Thus, a nerve ligation group was prepared. The group in which the nerve was exposed but not ligated was determined to be a sham surgery group.\nAllodynia observed in spinal nerve ligation model rats was measured using a von Frey filaments according to a method described in a known publication (Chaplan et al., J. Neurosci. Methods, 1994, vol. 53, p. 55) and a 50% response threshold (g) was determined. Eight days after the ligation surgery, allodynia of the nerve ligation group was measured before oral administration of Form A crystal of compound (I). Rats with a 50% response threshold (average value of the right hind paw and the left hind paw) of 2 g to less than 6 g were considered to have developed allodynia. The rats were divided as neuropathic pain model rats into groups such that there was no significant difference in the 50% response threshold between groups. Allodynia was measured 3 hours after the oral administration of Form A crystal of compound (I), and the analgesic effect was evaluated. Pregabalin was used as a positive control.\nForm A crystal of compound (I) was dissolved in water for injection (distilled water) to result in concentrations of 5, 10, and 20 mg/mL, and orally administered in a dose volume of 1 mL per kg body weight. Pregabalin was dissolved in water for injection (distilled water) to result in a concentration of 10 mg/mL and orally administered in a dose volume of 1 mL per kg of body weight. Water for injection (distilled water) was orally administered to the sham surgery group. A group in which water for injection (distilled water) was orally administered to rats in the nerve ligation group was defined as a negative control group.\nThe horizontal axis represents the solution to be administered in each group, namely, the nerve ligation group or sham surgery group, and the vertical axis represents the 50% response threshold (g) (mean±standard error, n=5 to 7). […]"}, "[2]": {"experiment": "Evaluation of hygroscopicity (equilibrium moisture measurement)", "assay_type": "physicochemical", "conditions": "for Weight increase: humidification with an increase in relative humidity from 5% to 65%; for Weight increase / Change in appearance: 30° C.; for Change in appearance: humidification", "description": "Equilibrium moisture measurement was performed on Form A crystal and the amorphous matter of compound (I) under the following conditions using a fully automated symmetric vapor sorption analyzer (TA Instruments Inc.; VTI-SA+). […] The change in appearance was also observed."}, "[3]": {"experiment": "Evaluation of solubility in Japanese Pharmacopoeia test fluids", "assay_type": "physicochemical", "conditions": "thermodynamic from solid", "description": "Form A crystal of compound (I) (100 mg) was weighed into a borosilicate glass vial, and the 1st fluid for disintegration test/1st fluid for dissolution test of the Japanese Pharmacopoeia 16th edition (pH 1.2)(1 mL) or the 2nd fluid for disintegration test of the Japanese Pharmacopoeia 16th edition (pH 6.8)(1 mL) was added in a temperature and humidity test chamber (Amefrec Co., Ltd.; NO DOORα) adjusted to 37° C., followed by stirring. Form B crystal of ethane disulfonate of compound (I) (10 mg) was weighed into a borosilicate glass vial, and the 2nd fluid for disintegration test of the Japanese Pharmacopoeia 16th edition (pH 6.8) (0.1 mL) was added in a temperature and humidity test chamber (Amefrec Co., Ltd.; NO DOORα) adjusted to 37° C., followed by stirring. After 30 minutes, the inside of each vial was visually checked, and it was confirmed that each crystal was completely dissolved."}, "[4]": {"experiment": "Evaluation of storage stability, Form A crystal versus amorphous matter (HPLC purity)", "assay_type": "physicochemical", "conditions": "for Chemical purity, After storage / Decomposition product increased by not less than 0.15% after storage / Optical purity, After storage: airtight state, listed as Form A"}, "[5]": {"conditions": "listed as Form A crystal of compound (I)"}, "[6]": {"conditions": "40° C., relative humidity 75%, 8 weeks"}}, "note": "Where two headings read alike, the source gives them in different places."}
{"smiles": "CN(C)C1CCN(C(=O)C[C@H](O)c2nccn2C)CC1", "note": "[Form A crystal, (S)-1-(4-(dimethylamino)piperidin-1-yl)-3-hydroxy-3-(1-methyl-1H-imidazol-2-yl)propan-1-one]", "values": [{"measurement": "improvement of allodynia (50% response threshold)", "setting": "[1]; oral 5 mg/kg", "result": "significant improvement"}, {"measurement": "improvement of allodynia (50% response threshold)", "setting": "[1]; oral 10 mg/kg", "result": "significant improvement"}, {"measurement": "improvement of allodynia (50% response threshold)", "setting": "[1]; oral 20 mg/kg", "result": "significant improvement"}, {"measurement": "Weight increase", "setting": "[2]", "result": 0.1, "unit": "%"}, {"measurement": "Weight increase", "setting": "[2]; [5]", "result": "did not experience an increase in weight"}, {"measurement": "Change in appearance", "setting": "[2]", "result": "Maintenance of white powder"}, {"measurement": "Change in appearance", "setting": "[2]; [5]", "result": "did not deliquesce"}, {"measurement": "change in the crystal form after the hygroscopicity evaluation test", "setting": "[2]; powder X-ray diffraction after humidification", "result": "did not experience a change in the crystal form"}, {"measurement": "solubility at 30 min", "setting": "[3]; Japanese Pharmacopoeia test fluids, text summary of Table 5, 37° C., read-out: solubilities", "result": "≥ 100", "unit": "mg/mL"}, {"measurement": "solubility at 30 min", "setting": "[3]; simulated gastric fluid, 1st fluid for disintegration test/1st fluid for dissolution test of the Japanese Pharmacopoeia 16th edition (pH 1.2), 37° C., 30 minutes, read-out: Solubility (37° C.)", "result": "> 100", "unit": "mg/mL"}, {"measurement": "Chemical purity, After storage", "setting": "[4]; [6]", "result": 99.9, "unit": "%"}, {"measurement": "Decomposition product increased by not less than 0.15% after storage", "setting": "[4]; [6]", "result": "None"}, {"measurement": "Optical purity, After storage", "setting": "[4]; [6]", "result": 98.8, "unit": "% ee"}, {"measurement": "Chemical purity, After storage", "setting": "[4]; 60° C., 4 weeks", "result": 99.8, "unit": "%"}, {"measurement": "Decomposition product increased by not less than 0.15% after storage", "setting": "[4]; 60° C., 4 weeks", "result": "None"}, {"measurement": "Optical purity, After storage", "setting": "[4]; 60° C., 4 weeks", "result": 98.8, "unit": "% ee"}, {"measurement": "Chemical purity, Initial value", "setting": "[4]; before storage", "result": 99.9, "unit": "%"}, {"measurement": "Optical purity, Initial value", "setting": "[4]; before storage", "result": 98.6, "unit": "% ee"}]}
